Our source for the IC50 values is patent US8889704B2 (Array BioPharma Inc., priority 2011, dated 2014).

Structures can show the parent of a compound that is named as a salt. Bounds are passed on as bounds.

What all share (format): biochemical
For one assay, the target named is PIM-1 (Homo sapiens, UniProt P11309). Nature of the assay: Enzyme PIM-1 Assay ([33P]ATP incorporation into PIM2tide, filter plate). The note with it: averaged IC50; 35 μM ATP, 7.5 μM PIM2tide, 0.25 nM PIM-1, 60 min at 22° C. The procedure:
(§1) The assay for the determination of PIM-1 activity is based on the incorporation of [^33P]PO4 from [γ-^33P]ATP into PIM2tide substrate and capture of the radiolabeled peptide onto a Whatman P81 (phosphocellulose) filter plate. The amount of radiolabeled product is then measured by liquid scintillation counting. The final buffer conditions were as follows: 20 mM K^+MOPS, pH 7.4, 10 mM MgCl2, 0.005% Tween-20, 1 mM DTT. Assay mixtures contained 35 μM [γ-^33P]ATP (20 μCi/mL), 7.5 μM PIM2tide and 0.25 nM PIM-1 in a total volume of 50 μL. Incubations were carried out for 60 min at 22° C. and quenched with 75 μL of 200 mM H3PO4, filtered through a Whatman P81 plate and washed (1×200 μL and 5×100 μL) with 200 mM H3PO4. Fifty μL of liquid scintillation cocktail were then added per well, and the plate was counted for 30 s/well using a TopCount NXT.
(§2) Compounds were prepared at 50× the final concentration in DMSO by conducting 3-fold serial dilutions from a 500-μM intermediate dilution to give a 10-point dosing curve having a high dose of 10 μM. One-μL aliquots of these were then transferred to the assay mixtures above to give a final concentration of DMSO of 2%. A standard or reference compound was typically included on each assay plate to validate that plate. For each plate, percent of control (POC) values were calculated for each well. IC50 values were estimated from the POC values using a standard 4-parameter logistic model. The IC50 is defined as the concentration of inhibitor at which the POC equals 50 for the fitted curve.

For assay [1], the target named is T1, GST-tagged recombinant full-length human Pim-2 (Homo sapiens, UniProt Q9P1W9).
T1 construct: GST-tagged recombinant full-length human Pim-2; GST
T1 sequence (Q9P1W9 whole entry): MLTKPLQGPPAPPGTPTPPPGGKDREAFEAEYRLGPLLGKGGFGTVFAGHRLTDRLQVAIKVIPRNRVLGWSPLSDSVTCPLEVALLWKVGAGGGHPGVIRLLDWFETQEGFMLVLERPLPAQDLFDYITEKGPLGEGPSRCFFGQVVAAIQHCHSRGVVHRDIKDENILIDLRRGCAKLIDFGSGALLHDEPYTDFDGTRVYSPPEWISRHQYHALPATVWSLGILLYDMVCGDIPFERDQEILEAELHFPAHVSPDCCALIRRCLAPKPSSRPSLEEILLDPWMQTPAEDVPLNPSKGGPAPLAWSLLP
Description: PIM-2 Assay (as Example A). The note with it: averaged IC50; 4 μM ATP, 1.0 μM PIM2tide, 1.5 nM Pim-2. The protocol: as §1, §2
Assay was performed as described in Example A, using 4 μM [γ-^33P]ATP (20 μCi/mL), 1.0 μM PIM2tide and 1.5 nM GST-tagged recombinant full-length human Pim-2 in place of PIM-1.

The next assay addresses recombinant rat PIM-3 (Rattus norvegicus, UniProt O70444). Description: PIM-3 Assay (as Example A). The note with it: averaged IC50; 30 μM ATP, 3.75 μM PIM2tide, 0.5 nM PIM-3. The procedure: as §1, §2
Assay was performed as described in Example A, using 30 μM [γ-^33P]ATP (20 μCi/mL), 3.75 μM PIM2tide and 0.5 nM recombinant rat PIM-3 in place of PIM-1.

The IC50 is the point on the concentration scale where inhibition reaches its midpoint.

Chain of PIM-1 (P11309 whole entry, species assumed): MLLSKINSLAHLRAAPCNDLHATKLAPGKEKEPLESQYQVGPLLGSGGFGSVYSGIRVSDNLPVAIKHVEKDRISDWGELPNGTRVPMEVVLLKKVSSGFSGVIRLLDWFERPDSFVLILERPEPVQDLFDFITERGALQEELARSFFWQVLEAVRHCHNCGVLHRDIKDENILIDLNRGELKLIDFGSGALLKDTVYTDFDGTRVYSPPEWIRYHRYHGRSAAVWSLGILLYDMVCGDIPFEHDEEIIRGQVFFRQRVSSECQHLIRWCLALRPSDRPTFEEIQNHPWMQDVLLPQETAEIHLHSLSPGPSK

Consider `N[C@@H]1CCN([C@H](c2ccc3nnc(-c4ccc5cccc(OCC6CC6)c5n4)n3c2)C(F)(F)F)C1` (single isomer, unassigned) [Example 22], for which the IC50 at PIM-1 came to 0.25 nM; in assay [1], 145 nM; on recombinant rat PIM-3, 2.9 nM.

Consider `CC(C)C(=O)Nc1ccc2ccc(-c3nnc4ccc([C@@H](N5CC[C@H](O)C5)C(F)(F)F)cn34)nc2c1` [Example 106, N-(2-(6-((R)-2,2,2-trifluoro-1-((S)-3-hydroxypyrrolidin-1-yl)ethyl)-[1,2,4]triazolo[4,3-a]pyridin-3-yl)quinolin-7-yl)isobutyramide], for which the IC50 is 1.62 nM against PIM-1, more than 100 nM in assay [1] and 3.4 nM on recombinant rat PIM-3.

For the compound `OCC1(c2cc(F)cc3ccc(-c4nnc5ccc([C@@H](N6CC[C@H](O)C6)C(F)(F)F)cn45)nc23)CC1` [Example 126, (S)-1-((R)-2,2,2-trifluoro-1-(3-(6-fluoro-8-(1-(hydroxymethyl)cyclopropyl)quinolin-2-yl)-[1,2,4]triazolo[4,3-a]pyridin-6-yl)ethyl)pyrrolidin-3-ol hydrochloride], the results for the IC50 (against PIM-1; in assay [1]; on recombinant rat PIM-3) were 0.28 nM, more than 100 nM and 1.9 nM, respectively.

In the case of `COCCOc1ccc2ccc(-c3nnc4ccc([C@@H](N5CC[C@H](N)C5)C(F)(F)F)cn34)nc2c1C1CC1` [Example 152, (S)-1-((R)-1-(3-(8-cyclopropyl-7-(2-methoxyethoxy)quinolin-2-yl)-[1,2,4]triazolo[4,3-a]pyridin-6-yl)-2,2,2-trifluoroethyl)pyrrolidin-3-amine dihydrochloride], the IC50 at PIM-1 was 0.25 nM; in assay [1], 42 nM; at recombinant rat PIM-3, 0.3 nM.

Regarding `COCCOc1ccc2ccc(-c3nnc4ccc([C@H](N5CC[C@](C)(N)C5)C(F)(F)F)cn34)nc2c1` [Example 260, (S)-3-methyl-1-((S)-2,2,2-trifluoro-1-(3-(7-(2-methoxyethoxy)quinolin-2-yl)-[1,2,4]triazolo[4,3-a]pyridin-6-yl)ethyl)pyrrolidin-3-amine dihydrochloride], the results for the IC50 (at PIM-1; in assay [1]; at recombinant rat PIM-3) were 0.39 nM, 95 nM and 0.5 nM, respectively.

For the compound `N[C@H]1CCN([C@H](c2ccc3nnc(-c4ccc5cc(F)c(OC6CCOCC6)cc5n4)n3c2)C(F)(F)F)C1` [Example 156, (S)-1-((R)-2,2,2-trifluoro-1-(3-(6-fluoro-7-(tetrahydro-2H-pyran-4-yloxy)quinolin-2-yl)-[1,2,4]triazolo[4,3-a]pyridin-6-yl)ethyl)pyrrolidin-3-amine hydrochloride], the IC50 against PIM-1 came out at 0.15 nM; in assay [1], 38 nM; on recombinant rat PIM-3, 0.4 nM.

`N[C@H]1CCN([C@@H](c2ccc3nnc(-c4ccc5ccc(C6CC6)cc5n4)n3c2)C(F)(F)F)C1` (single isomer, unassigned) [Example 12]: the results for the IC50 (against PIM-1; in assay [1]; on recombinant rat PIM-3) were 0.4 nM, 51 nM and 1.1 nM, respectively.

Take `COc1c(F)cc2ccc(-c3nnc4ccc([C@@H](N5CC[C@H](N)C5)C(F)(F)F)cn34)nc2c1F` [Example 178, (S)-1-((R)-1-(3-(6,8-difluoro-7-methoxyquinolin-2-yl)-[1,2,4]triazolo[4,3-a]pyridin-6-yl)-2,2,2-trifluoroethyl)pyrrolidin-3-amine dihydrochloride]: the IC50 against PIM-1 was 1.81 nM; in assay [1] it was more than 100 nM; at recombinant rat PIM-3, 19 nM.

With `C[C@H](CO)Oc1cccc2ccc(-c3nnc4ccc([C@@H](N5CC[C@H](NCC6CC6)C5)C(F)(F)F)cn34)nc12` [Example 230, dihydrochloride], the figures for the IC50 (at PIM-1; in assay [1]; on recombinant rat PIM-3) were 0.64 nM, 211 nM and 3.2 nM, respectively.

Take `CCOc1cc2nc(-c3nnc4ccc([C@H](N5CC[C@](C)(N)C5)C(F)(F)F)cn34)ccc2cc1F` [Example 220, (S)-1-((S)-1-(3-(7-ethoxy-6-fluoroquinolin-2-yl)-[1,2,4]triazolo[4,3-a]pyridin-6-yl)-2,2,2-trifluoroethyl)-3-methylpyrrolidin-3-amine]: the values for the IC50 (against PIM-1; in assay [1]; at recombinant rat PIM-3) were 0.28 nM, 72 nM and 0.4 nM, respectively.

For the compound `CC(C)Oc1cccc2ccc(-c3nnc4ccc(C(N5C[C@@H](O)[C@H](O)C5)C(F)(F)F)cn34)nc12` (single isomer, unassigned) [Example 82], the IC50 against PIM-1 is 1.12 nM; in assay [1] it was more than 100 nM; at recombinant rat PIM-3 it was 30 nM.

Take `CO[C@@H](C)COc1ccc2ccc(-c3nnc4ccc([C@@H](N5CC[C@H](N)C5)C(F)(F)F)cn34)nc2c1` [Example 287, (S)-1-((R)-2,2,2-trifluoro-1-(3-(7-((S)-2-methoxypropoxy)quinolin-2-yl)-[1,2,4]triazolo[4,3-a]pyridin-6-yl)ethyl)pyrrolidin-3-amine dihydrochloride]: the IC50 stood at 0.32 nM against PIM-1, 178 nM in assay [1] and 0.7 nM on recombinant rat PIM-3.

On to `CC1(NC(=O)c2ccc3ccc(-c4nnc5ccc([C@@H](N6CC[C@@H](N)C6)C(F)(F)F)cn45)nc3c2)CC1` [Example 55, 2-(6-((R)-1-((R)-3-aminopyrrolidin-1-yl)-2,2,2-trifluoroethyl)-[1,2,4]triazolo[4,3-a]pyridin-3-yl)-N-(1-methylcyclopropyl)quinoline-7-carboxamide dihydrochloride], for which the figures for the IC50 (at PIM-1; in assay [1]; on recombinant rat PIM-3) were 0.25 nM, 35 nM and 0.3 nM, respectively.

Turning to `FC(F)(F)[C@@H](c1ccc2nnc(-c3ccc4cccc(OCC5CC5)c4n3)n2c1)N1C[C@@H]2C[C@H]1CN2` [Example 67, 2-(6-((R)-1-((1S,4S)-2,5-diazabicyclo[2.2.1]heptan-2-yl)-2,2,2-trifluoroethyl)-[1,2,4]triazolo[4,3-a]pyridin-3-yl)-8-(cyclopropylmethoxy)quinoline dihydrochloride], the IC50 against PIM-1 turned out to be 1.63 nM; in assay [1], 63 nM; on recombinant rat PIM-3 it was 3.2 nM.

For `Fc1ccc2ccc(-c3nnc4ccc([C@@H](N5C[C@@H]6C[C@H]5CN6)C(F)(F)F)cn34)nc2c1` [Example 63, 2-(6-((R)-1-((1S,4S)-2,5-diazabicyclo[2.2.1]heptan-2-yl)-2,2,2-trifluoroethyl)-[1,2,4]triazolo[4,3-a]pyridin-3-yl)-7-fluoro quinoline dihydrochloride], the IC50 was 11.7 nM against PIM-1, more than 100 nM in assay [1] and 25 nM at recombinant rat PIM-3.

For `N[C@H]1CCN([C@H](c2ccc3nnc(-c4ccc5ccc(C6CC6)cc5n4)n3c2)C(F)(F)F)C1` (single isomer, unassigned) [Example 13], the IC50 was found to be 0.31 nM against PIM-1, 121 nM in assay [1] and 1 nM on recombinant rat PIM-3.

Regarding `Cc1c(-c2cc3nc(-c4nnc5ccc([C@@H](N6CC[C@H](N)C6)C(F)(F)F)cn45)ccc3cc2F)cnn1C` [Example 206, (3 S)-1-((1R)-1-(3-(7-(1,5-dimethyl-1H-pyrazol-4-yl)-6-fluoroquinolin-2-yl)-[1,2,4]triazolo[4,3-a]pyridin-6-yl)-2,2,2-trifluoroethyl)pyrrolidin-3-amine dihydrochloride], the IC50 was 0.09 nM against PIM-1, 55 nM in assay [1] and 0.1 nM at recombinant rat PIM-3.

Take `CC(C)Oc1cccc2ccc(-c3nnc4ccc([C@@H](N5CC[C@H](NCCF)C5)C(F)(F)F)cn34)nc12` [Example 81, (S)—N-(2-fluoroethyl)-1-((R)-2,2,2-trifluoro-1-(3-(8-isopropoxyquinolin-2-yl)-[1,2,4]triazolo[4,3-a]pyridin-6-yl)ethyl)pyrrolidin-3-amine dihydrochloride]: the values for the IC50 (at PIM-1; in assay [1]; at recombinant rat PIM-3) were 0.37 nM, more than 100 nM and 2.8 nM, respectively.

As for `COCCc1cc2nc(-c3nnc4ccc([C@H](N5CC[C@](C)(N)C5)C(F)(F)F)cn34)ccc2cc1F` [Example 284, (S)-3-methyl-1-((S)-2,2,2-trifluoro-1-(3-(6-fluoro-7-(2-methoxyethyl)quinolin-2-yl)-[1,2,4]triazolo[4,3-a]pyridin-6-yl)ethyl)pyrrolidin-3-amine dihydrochloride], the IC50 at PIM-1 worked out at 0.28 nM; in assay [1] it was 50 nM; at recombinant rat PIM-3, 0.4 nM.
